Experimental findings from ChEMBL document CHEMBL5143517, “Discovery and radiosensitization research of ursolic acid derivatives as SENP1 inhibitors” (Eur J Med Chem, 2022) are described below.

Data set [1] is described as follows: Cytotoxicity against human HeLa cells assessed as inhibition of cell growth incubated for 72 hrs by CCK-8 assay. It is filed as toxicity, cell-based.
Data set [2] deals with HeLa. The data set can be described thus: Radiosensitizing activity against human HeLa cells assessed as reduction in cell survival fractions at 5 uM pretreated for 24 hrs followed by exposure to 4 to 8 Gy gamma irradiation and measured after 2 weeks by crystal violet staining based analysis. It is filed as functional.
The subject of data set [3] is HeLa. The data set can be described thus: Radiosensitizing activity against human HeLa cells assessed as average lethal dose at 5 uM pretreated for 24 hrs followed by exposure to 2 to 8 Gy gamma irradiation and measured after 2 weeks by crystal violet staining based analysis (reference value: 1.47 Gy). It is filed as functional.
The subject of data set [4] is HeLa. The data set can be described thus: Radiosensitizing activity against human HeLa cells assessed as quasi-threshold dose at 5 uM pretreated for 24 hrs followed by exposure to 2 to 8 Gy gamma irradiation and measured after 2 weeks by crystal violet staining based analysis (reference value: 1.72 Gy). It is filed as functional.
For data set [5], the target named is T1, Sentrin-specific protease 1 (Homo sapiens, UniProt Q9P0U3).
T1 sequence (Q9P0U3 whole entry): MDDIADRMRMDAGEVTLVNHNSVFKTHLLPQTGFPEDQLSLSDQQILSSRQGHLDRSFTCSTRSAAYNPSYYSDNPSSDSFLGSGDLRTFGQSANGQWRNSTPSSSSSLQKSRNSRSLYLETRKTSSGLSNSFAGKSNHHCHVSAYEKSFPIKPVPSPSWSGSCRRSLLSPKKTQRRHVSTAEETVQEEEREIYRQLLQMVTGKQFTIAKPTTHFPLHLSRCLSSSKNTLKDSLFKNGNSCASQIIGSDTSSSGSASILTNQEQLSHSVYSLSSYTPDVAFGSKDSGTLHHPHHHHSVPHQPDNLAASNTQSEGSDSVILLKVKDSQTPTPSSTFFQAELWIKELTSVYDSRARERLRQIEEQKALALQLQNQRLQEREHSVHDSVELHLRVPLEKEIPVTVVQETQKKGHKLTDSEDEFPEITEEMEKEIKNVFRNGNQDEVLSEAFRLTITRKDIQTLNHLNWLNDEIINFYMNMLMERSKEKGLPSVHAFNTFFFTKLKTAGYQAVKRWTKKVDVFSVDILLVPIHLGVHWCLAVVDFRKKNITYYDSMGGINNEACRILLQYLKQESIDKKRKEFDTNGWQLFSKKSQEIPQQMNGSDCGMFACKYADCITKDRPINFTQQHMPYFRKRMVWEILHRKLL
The data set can be described thus: Inhibition of recombinant human SENP1 catalytic domain using RanGAP1 as substrate preincubated for 10 mins followed by substrate addition and measured after 30 mins by Western blot analysis. Background: Immunoblotting shows a protein as a band on a membrane.

For data set [6], the system named is HeLa. The data set can be described thus: Radiosensitizing activity against human HeLa cells assessed as radiosensitization enhancement ratio at 5 uM pretreated for 24 hrs followed by exposure to 2 to 8 Gy gamma irradiation and measured after 2 weeks by crystal violet staining based analysis (reference value: 1). It is filed as functional.

Active and inactive are the calls of the source.

For `C[C@H]1[C@H](C)CC[C@]2(C(=O)OCC(=O)O)CC[C@]3(C)C(=CC[C@@H]4[C@@]5(C)CC[C@H](O)C(C)(C)[C@@H]5CC[C@]43C)[C@H]12`, in data set [1], the IC50 (in general, the concentration at which inhibition is half-maximal) at 72 h was more than 20 µM. Besides, in the data set with HeLa [2], the result was Active. For the same compound, the LD with HeLa [3] worked out at 1.26 Gy; in the data set on HeLa [4] it was 2.07 Gy.

As for `C[C@H]1[C@H](C)CC[C@]2(C(=O)O)CC[C@]3(C)C(=CC[C@@H]4[C@@]5(C)CC[C@H](O)C(C)(C)[C@@H]5CC[C@]43C)[C@H]12` [URSOLIC ACID], in data set [5], the IC50 was found to be 2.58 µM. For the same compound, the outcome in the data set with HeLa [2] was Active. For the same compound, the LD amounted to 1.2 Gy in the data set on HeLa [3] and 1.77 Gy in the data set with HeLa [4]. Also, the Ratio in the data set on HeLa [6] amounted to 1.22.

Take `C[C@H]1[C@H](C)CC[C@]2(C(=O)OCCN3CCN(C)CC3)CC[C@]3(C)C(=CC[C@@H]4[C@@]5(C)CC[C@H](O)C(C)(C)[C@@H]5CC[C@]43C)[C@H]12`: the half-inhibitory concentration (IC50) at 72 h in data set [1] is more than 20 µM.

Regarding `C[C@H]1[C@H](C)CC[C@]2(C(=O)NCCC(=O)O)CC[C@]3(C)C(=CC[C@@H]4[C@@]5(C)CC[C@H](O)C(C)(C)[C@@H]5CC[C@]43C)[C@H]12`, in data set [1], the half-maximal inhibitory concentration (IC50) at 72 h is more than 20 µM.

As to `C[C@H]1[C@H](C)CC[C@]2(C(=O)OCCNC(=O)OC(C)(C)C)CC[C@]3(C)C(=CC[C@@H]4[C@@]5(C)CC[C@H](O)C(C)(C)[C@@H]5CC[C@]43C)[C@H]12`, the IC50 at 72 h in data set [1] was more than 20 µM.

In the case of `CC(=O)O[C@H]1CC[C@]2(C)[C@H]3CC=C4[C@@H]5[C@@H](C)[C@H](C)CC[C@]5(C(N)=O)CC[C@@]4(C)[C@]3(C)CC[C@H]2C1(C)C`, the half-maximal inhibitory concentration (IC50) at 72 h in data set [1] is more than 20 µM.

As for `COC(=O)CN(C)C(=O)[C@]12CC[C@@H](C)[C@H](C)[C@H]1C1=CC[C@@H]3[C@@]4(C)CC[C@H](OC(C)=O)C(C)(C)[C@@H]4CC[C@@]3(C)[C@]1(C)CC2`, in data set [1], the IC50 at 72 h was more than 20 µM.

On to `C[C@H]1[C@H](C)CC[C@]2(C(=O)OCC(=O)N(C)CCO)CC[C@]3(C)C(=CC[C@@H]4[C@@]5(C)CC[C@H](O)C(C)(C)[C@@H]5CC[C@]43C)[C@H]12`, for which the half-maximal inhibitory concentration (IC50) at 72 h in data set [1] is more than 20 µM.

With `CNC(=O)CNC(=O)[C@]12CC[C@@H](C)[C@H](C)[C@H]1C1=CC[C@@H]3[C@@]4(C)CC[C@H](O)C(C)(C)[C@@H]4CC[C@@]3(C)[C@]1(C)CC2`, the IC50 at 72 h in data set [1] was more than 20 µM. The result in the data set on HeLa [2] was Active. The LD in the data set on HeLa [3] is 1.02 Gy; in the data set with HeLa [4], 1.92 Gy.

As for `CC(=O)O[C@H]1CC[C@]2(C)[C@H]3CC=C4[C@@H]5[C@@H](C)[C@H](C)CC[C@]5(C(=O)NCC(N)=O)CC[C@@]4(C)[C@]3(C)CC[C@H]2C1(C)C`, the IC50 at 72 h in data set [1] is more than 20 µM.
